ChEMBL document CHEMBL4145653, “Biosynthetic Baeyer-Villiger Chemistry Enables Access to Two Anthracene Scaffolds from a Single Gene Cluster in Deep-Sea-Derived Streptomyces olivaceus SCSIO T05” (J Nat Prod, 2018)

What was measured:
Alpha-2-macroglobulin = molecular target: T1, Alpha-2-macroglobulin (Homo sapiens, UniProt P01023); assay: Inhibition of alpha-2 macroglobulin (unknown origin)
T1 sequence (P01023 whole entry): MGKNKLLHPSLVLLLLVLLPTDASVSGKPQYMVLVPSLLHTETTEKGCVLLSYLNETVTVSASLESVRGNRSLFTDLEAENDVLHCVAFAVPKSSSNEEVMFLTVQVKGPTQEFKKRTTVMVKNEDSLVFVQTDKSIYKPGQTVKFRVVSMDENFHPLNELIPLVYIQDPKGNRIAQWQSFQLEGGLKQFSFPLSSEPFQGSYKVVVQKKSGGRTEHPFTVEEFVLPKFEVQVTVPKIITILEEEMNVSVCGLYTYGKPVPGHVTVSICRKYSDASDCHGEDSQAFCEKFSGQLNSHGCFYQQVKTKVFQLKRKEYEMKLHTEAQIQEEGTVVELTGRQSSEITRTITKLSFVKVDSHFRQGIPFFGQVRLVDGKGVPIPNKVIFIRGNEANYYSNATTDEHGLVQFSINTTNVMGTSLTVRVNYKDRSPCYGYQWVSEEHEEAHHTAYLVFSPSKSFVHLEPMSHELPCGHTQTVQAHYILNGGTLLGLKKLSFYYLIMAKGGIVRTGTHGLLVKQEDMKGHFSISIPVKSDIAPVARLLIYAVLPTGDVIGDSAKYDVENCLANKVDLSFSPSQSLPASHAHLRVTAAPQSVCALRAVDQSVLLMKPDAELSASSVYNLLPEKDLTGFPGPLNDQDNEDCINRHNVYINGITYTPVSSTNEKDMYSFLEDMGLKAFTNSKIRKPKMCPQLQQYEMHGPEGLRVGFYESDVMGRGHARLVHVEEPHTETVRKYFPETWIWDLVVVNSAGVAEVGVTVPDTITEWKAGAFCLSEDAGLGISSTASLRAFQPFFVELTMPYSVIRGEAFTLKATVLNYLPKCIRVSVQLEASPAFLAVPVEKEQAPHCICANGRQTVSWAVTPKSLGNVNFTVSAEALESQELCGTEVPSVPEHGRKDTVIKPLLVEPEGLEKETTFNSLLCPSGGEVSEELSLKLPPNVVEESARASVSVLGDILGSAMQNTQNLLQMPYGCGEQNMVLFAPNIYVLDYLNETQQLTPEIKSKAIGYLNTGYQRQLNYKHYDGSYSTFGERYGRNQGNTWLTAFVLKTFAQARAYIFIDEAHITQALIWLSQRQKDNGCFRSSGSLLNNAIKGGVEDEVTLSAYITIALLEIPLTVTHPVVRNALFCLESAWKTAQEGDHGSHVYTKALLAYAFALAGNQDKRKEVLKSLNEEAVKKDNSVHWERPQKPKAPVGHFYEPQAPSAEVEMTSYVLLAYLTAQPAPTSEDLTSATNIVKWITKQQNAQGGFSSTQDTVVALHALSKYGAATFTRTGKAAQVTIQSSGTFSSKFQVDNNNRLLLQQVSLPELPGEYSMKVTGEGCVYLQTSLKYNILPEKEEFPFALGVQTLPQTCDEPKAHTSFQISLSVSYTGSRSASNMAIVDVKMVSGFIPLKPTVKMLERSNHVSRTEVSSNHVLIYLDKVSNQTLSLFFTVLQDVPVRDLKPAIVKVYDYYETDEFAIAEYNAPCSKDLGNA

[1] = Inhibition of glutathione S-transferase (unknown origin); design: species or system Homo sapiens

CC(C)CC[C@]1(O)[C@@]2(O)C(=O)O[C@]13C(=Cc1cccc(O)c1[C@@H]3O)C(=O)[C@@H]2C
IC50 (Alpha-2-macroglobulin): 257 µM

CC(C)CC[C@@]1(O)c2cc3c(O)cccc3cc2C(=O)[C@H](C)[C@]1(O)C(=O)O
IC50 [1]: 26.9 µM
IC50 (Alpha-2-macroglobulin): 94 µM
